# Results published in patent US20090148540A1, “Antibacterial composition and method of production” (MI HOPE INCORPORATED, priority 2007, published 2009).
# Tested on: MRSA
# Assay: Anti-MRSA activity on dried surface areas swabbed with MRSA broth, surveyed with MRSA selective agar plates
# Format: cell-based, Staphylococcus aureus
# Settings: surface areas previously swabbed with MRSA broth; treated areas dried 30 minutes; MEC DD Checker Plates; copper citrate solution (22 volts, 2.8 amps, 2 hours) diluted 1 to 10 in water
# Description: In one protocol, the diluted copper citrate solution was applied to several dried surface areas that had been previously swabbed with an MRSA containing broth solution. The treated areas were allowed to dry over the next 30 minutes. An MRSA selective agar medium was then used to survey the areas for residual MRSA (MEC DD Checker Plates obtained from Denka Seiken, Inc., Japan). For control, similarly contaminated areas were either left untreated or exposed to the original starting 5% citric acid solution.
smiles,measurement,value
"O=C(O)CC(O)(CC(=O)O)C(=O)O [5% citric acid solution, citric acid]",residual MRSA growth on MRSA selective agar medium from treated surface areas,numerous MRSA colonies developed
